One assay has as its system L1210 (leukemia). Put plainly: Growth inhibition (MTT) of L1210 cells. The class given is cell-based, murine. The following applies: Mus musculus, 48 hours, read-out: 50% growth inhibition concentration. The procedure:
(§1) Note that the tests were performed as follows. Various kinds of murine cancer cells (L1210 (leukemia)), Colon 26 (colon cancer), B16BL6 (malignant melanoma)) were suspended in RPMI1640 medium containing 10% fetal calf serum and adjusted to 2×10^4 cells/well and 0.1 ml of each of the suspensions was seeded on a 96-well plate. At the same time, a predetermined amount of the substance F-1490 was added and the resultants were cultivated at 37° C. for 48 hours in the air containing 5% CO2. Further, 10 μl of 0.5% MTT (3-[4,5-dimethylthiazol-2-yl] […] tetrazolium bromide) was added and the resultants were cultivated for 4 hours. After the cultivation, 0.1 ml of 10% SDS-0.01N hydrochloric acid was added and absorbance at 570 nm was measured to determine 50% growth inhibition concentration.

For assay [1], the system named is bone marrow cells (differentiation into osteoclasts). Kind of assay: Osteoclast differentiation inhibition: count of tartaric acid-resistant acid phosphatase-positive cells. In kind it is cell-based, C57BL/6 mouse. The procedure:
Bone marrow cells were collected from a C57BL/6mouse (female, 6 weeks old) and suspended in RPMI1460 medium that contains 10% fetal calf serum, 1 mM pyruvic acid, 0.1 mM non-essential amino acids (manufactured by Gibco), 500 μM 2-mercaptoethanol, 200 ng/ml parathyroid hormone related protein (PTHrP) and 50 μg/ml L-ascorbic acid and 1 ml of the suspension adjusted to a cell population of 1.5×10^6 cells/well was inoculated on a 24-well microplate. At the same time a test sample was added in appropriate amounts. On days 2 and 4 from the start of the cultivation, half the amount of the medium is exchanged with fresh medium containing the test sample. On day 7 from the start of the cultivation, the medium is removed by suction and the cells are fixed with an acetone:methanol (1:1) solution, to thereby allow tartaric acid-resistant acid phosphatase-positive cells stained. That is, 0.4 ml of a 0.2-M acetate buffer (pH 5.2) containing a staining fluid (0.1 mg/ml Naphthol AS-MX phosphate (Sigma AB), 0.6 mg/ml Fast red violet LB sal (Sigma AB) and 20 mM tartaric acid is added to each well and the resultants are allowed to react at 37° C. for 1 hour. After color development, the number of tartaric acid-resistant acid phosphatase-positive cells, which is an index of differentiation into osteoclasts, is measured under a microscope.
When the test sample contains a substance that is effective for inhibition of osteoclast differentiation, the occurrence of tartaric acid-resistant acid phosphatase-positive cells is inhibited. From changes in the above-mentioned number of cells depending on the concentration of the test sample, an effective concentration range of the test sample can be obtained.

The subject of assay [2] is B16BL6 (malignant melanoma). Kind of assay: Growth inhibition (MTT) of B16BL6 cells. In kind it is cell-based, murine. Particulars: Mus musculus, B16-BL6, 48 hours, read-out: 50% growth inhibition concentration. The procedure: as §1
The test system of another assay is Colon 26 (colon cancer). Kind of assay: Growth inhibition (MTT) of Colon 26 cells. In kind it is cell-based, murine. Particulars: Mus musculus, Colon26 cells, 48 hours, read-out: 50% growth inhibition concentration. The procedure:
as §1

Each structure is given as a SMILES string. Values after ≈ are worked out from the molar mass of the structure shown. Some results are limits rather than exact numbers.

In general, inhibition refers to the percentage by which the read-out fell short of the control. Take `O=C(O)c1cccc2c1NC1CCCCC1(O)O2` (centres unmarked) [Substance F-1490-A]: the IC50 in the assay on L1210 (leukemia) was more than 50 µg/mL; in assay [1] (Mus musculus, Table 1, osteoclast differentiation test, read-out: 50% growth inhibition concentration) it was 0.65 µg/mL (≈ 2.61 µM); in assay [2] it was more than 50 µg/mL; in the assay with Colon 26 (colon cancer), more than 50 µg/mL. Besides, in assay [1] (Osteoclast, 168 h, concentration 0.20 μg/ml, day 7, PTHrP-stimulated mouse bone marrow cells, read-out: Inhibition rate of differentiation into osteoclasts (%)), the inhibition at 0.2 µg/mL stood at 2%. Also, the inhibition at 0.78 µg/mL in assay [1] (Osteoclast, 168 h, concentration 0.78 μg/ml, day 7, PTHrP-stimulated mouse bone marrow cells, read-out: Inhibition rate of differentiation into osteoclasts (%)) was determined as 63%. Besides, the inhibition at 3.1 µg/mL in assay [1] (Osteoclast, 168 h, concentration 3.10 μg/ml, day 7, PTHrP-stimulated mouse bone marrow cells, read-out: Inhibition rate of differentiation into osteoclasts (%)) was 74%. Besides, the inhibition at 12.5 µg/mL in assay [1] (Osteoclast, 168 h, concentration 12.50 μg/ml, day 7, PTHrP-stimulated mouse bone marrow cells, read-out: Inhibition rate of differentiation into osteoclasts (%)) was 87%.

(Values after US7060821B2, “Osteoclast differentiation inhibitors” (Mercian Corporation, priority 2002, dated 2006).)
